Measurements: patent publication US7776847B2, “Benzisothiazoles useful for treating or preventing HCV infection” (priority 2005, dated 2010)

Tested on: HCV replicon
Experiment: HCV replicon luciferase reporter assay
Type: cell-based
Conditions: Hepatitis C virus, Table 5; read-out: IC50
Description: The inhibitory activity of certain exemplary compounds of the invention was confirmed using an HCV replicon assay. The HCV replicon can include such features as the HCV IRES, the HCV 3′ untranslated region, selected HCV genes encoding HCV polypeptides, selectable markers, and a reporter gene such as luciferase, GFP, etc. In the assay, actively dividing replicon-comprising cells were seeded at a density of between about 5,000 and 7,500 cells/well onto 96 well plates (about 90 μl of cells per well) and incubated at 37° C. and 5% CO2 for 24 hours. Then, the test compound (in a volume of about 10 μL) was added at various concentrations to each well and the cells were incubated for an additional 24-48 hours. The cells were harvested, and HCV replication or translation was monitored via a reporter assay, e.g., a luciferase reporter assay. The media was aspirated from each cell and Bright-Glo ([…].) luciferase assay reagents were added to each well according to the manufacturer's instructions. In this assay, the amount of test compound that yielded a 50% reduction in luciferase activity (IC50) was determined.

Compound	IC50
COC(=O)c1cnc(NCCCNc2nsc3ccccc23)cc1C(F)(F)F [Compound 284, methyl 6-(3-(benzo[d]isothiazol-3-ylamino)propylamino)-4-(trifluoromethyl)nicotinate]	< 5 µM
COc1ccc(C(=O)NCCCNc2nsc3ccccc23)cc1OC1CCCC1 [Compound 286, N-(3-(benzo[d]isothiazol-3-ylamino)propyl)-3-(cyclopentyloxy)-4-methoxybenzamide]	< 5 µM
Brc1ccc(CNCCCNc2nsc3ccccc23)cc1 [Compound 287, N^1-(benzo[d]isothiazol-3-yl)-N^3-(4-bromobenzyl)propane-1,3-diamine]	< 5 µM
CCCCc1ccc(CNCCCNc2nsc3ccccc23)cc1 [Compound 288, N^1-(benzo[d]isothiazol-3-yl)-N^3-(4-butylbenzyl)propane-1,3-diamine]	< 5 µM
O=C(NCCCNc1nsc2ccccc12)c1ccc(Br)cc1 [Compound 289, N-(3-(benzo[d]isothiazol-3-ylamino)propyl)-4-bromobenzamide]	< 5 µM
CCCNc1ccc(C(=O)NCCCNc2nsc3ccccc23)cc1 [Compound 290, N-(3-(benzo[d]isothiazol-3-ylamino)propyl)-4-(propylamino)benzamide]	< 5 µM
COc1ccc(-c2ccc(CNCCCNc3nsc4ccccc34)cc2)cc1 [Compound 291, N^1-(benzo[d]isothiazol-3-yl)-N^3-((4′-methoxybiphenyl-4-yl)methyl)propane-1,3-diamine]	< 5 µM
COc1ccc(-c2ccc(CNCCCNc3nsc4ccccc34)cc2)cc1OC [Compound 292, N^1-(benzo[d]isothiazol-3-yl)-N^3-((3′,4′-dimethoxybiphenyl-4-yl)methyl)propane-1,3-diamine]	< 5 µM
CCCCc1ccc(CN(CCCNc2nsc3ccccc23)C(=O)c2ccccn2)cc1 [Compound 293, N-(3-(benzo[d]isothiazol-3-ylamino)propyl)-N-(4-butylbenzyl)picolinamide]	< 5 µM
COc1ccc(Cl)cc1-c1ccc(CNCCCNc2nsc3ccccc23)cc1 [Compound 294, N^1-(benzo[d]isothiazol-3-yl)-N^3-((5′-chloro-2′-methoxybiphenyl-4-yl)methyl)propane-1,3-diamine]	< 5 µM
CCCCc1ccc(NCCCNc2nsc3ccccc23)cc1 [Compound 295, N^1-(benzo[d]isothiazol-3-yl)-N^3-(4-butylphenyl)propane-1,3-diamine]	< 5 µM
CCN1CCN(c2ccc(C(=O)NCCCNc3nsc4ccccc34)cc2)CC1 [Compound 296, N-(3-(benzo[d]isothiazol-3-ylamino)propyl)-4-(4-ethylpiperazin-1-yl)benzamide]	< 5 µM
O=C(NCCCNc1nsc2ccccc12)c1ccc(NCc2ccccn2)cc1 [Compound 297, N-(3-(benzo[d]isothiazol-3-ylamino)propyl)-4-(pyridin-2-ylmethylamino)benzamide]	< 5 µM
CC(C)Nc1ccc(C(=O)NCCCNc2nsc3ccccc23)cc1 [Compound 298, N-(3-(benzo[d]isothiazol-3-ylamino)propyl)-4-(isopropylamino)benzamide]	< 5 µM
Brc1cccc(CNCCCNc2nsc3ccccc23)c1 [Compound 299, N^1-(benzo[d]isothiazol-3-yl)-N^3-(3-bromobenzyl)propane-1,3-diamine]	< 5 µM
COc1ccc(-c2cccc(CNCCCNc3nsc4ccccc34)c2)cc1 [Compound 300, N^1-(benzo[d]isothiazol-3-yl)-N^3-((4′-methoxybiphenyl-3-yl)methyl)propane-1,3-diamine]	< 5 µM

Compound	IC50
COc1ccc(-c2cccc(CNCCCNc3nsc4ccccc34)c2)cc1OC [Compound 301, N^1-(benzo[d]isothiazol-3-yl)-N^3-((4′,5′-dimethoxybiphenyl-3-yl)methyl)propane-1,3-diamine]	< 5 µM
COc1ccc(Cl)cc1-c1cccc(CNCCCNc2nsc3ccccc23)c1 [Compound 302, N^1-(benzo[d]isothiazol-3-yl)-N^3-((3′-chloro-6′-methoxybiphenyl-3-yl)methyl)propane-1,3-diamine]	< 5 µM
Oc1ccc(Br)cc1CNCCCNc1nsc2ccccc12 [Compound 303, 2-((3-(benzo[d]isothiazol-3-ylamino)propylamino)methyl)-4-bromophenol]	< 5 µM
COc1ccc(CNCCCNc2nsc3ccccc23)cc1O [Compound 304, 5-((3-(benzo[d]isothiazol-3-ylamino)propylamino)methyl)-2-methoxyphenol]	< 5 µM
c1ccc(CN2CCCC(NCCCNc3nsc4ccccc34)C2)cc1 (stereo not shown) [Compound 306, N^1-(benzo[d]isothiazol-3-yl)-N^3-(1-benzylpiperidin-3-yl)propane-1,3-diamine]	< 5 µM
CC(C)(C)OC(=O)N1CCC(NCCCNc2nsc3ccccc23)CC1 [Compound 307, tert-butyl 4-(3-(benzo[d]isothiazol-3-ylamino)propylamino)piperidine-1-carboxylate]	< 5 µM
c1cncc(CNCCCNc2nsc3ccccc23)c1 [Compound 308, N^1-(benzo[d]isothiazol-3-yl)-N^3-(pyridin-3-ylmethyl)propane-1,3-diamine]	> 5 µM
c1ccc(CNCCCNc2nsc3ccccc23)nc1 [Compound 309, N^1-(benzo[d]isothiazol-3-yl)-N^3-(pyridin-2-ylmethyl)propane-1,3-diamine]	> 5 µM
CCCCOc1cc(C(=O)NCCNc2nsc3ccc(NCCC)cc23)ccc1OC [Compound 310, 3-butoxy-4-methoxy-N-(2-(5-(propylamino)benzo[d]isothiazol-3-ylamino)ethyl)benzamide]	< 5 µM
O=C1NC(CNc2nsc3ccccc23)C(=O)N1c1ccc(I)cc1 (stereo not shown) [Compound 311, 5-((benzo[d]isothiazol-3-ylamino)methyl)-3-(4-iodophenyl)imidazolidine-2,4-dione]	> 5 µM
COc1ccc(-c2ccccc2CNCCCNc2nsc3ccccc23)cc1 [Compound 312, N^1-(benzo[d]isothiazol-3-yl)-N^3-((4′-methoxybiphenyl-2-yl)methyl)propane-1,3-diamine]	< 5 µM
COc1ccc(-c2ccccc2CNCCCNc2nsc3ccccc23)cc1OC [Compound 313, N^1-(benzo[d]isothiazol-3-yl)-N^3-((3′,4′-dimethoxybiphenyl-2-yl)methyl)propane-1,3-diamine]	< 5 µM
COc1ccc(-c2ccc(CN(CCCNc3nsc4ccccc34)C(=O)N3CCOCC3)cc2)cc1 [Compound 314, N-(3-(benzo[d]isothiazol-3-ylamino)propyl)-N-((4′-methoxybiphenyl-4-yl)methyl)morpholine-4-carboxamide]	< 5 µM
COc1ccc(-c2ccc(CN(CCCNc3nsc4ccccc34)C(=O)N(C)C)cc2)cc1 [Compound 315, 1-(3-(benzo[d]isothiazol-3-ylamino)propyl)-1-((4′-methoxybiphenyl-4-yl)methyl)-3,3-dimethylurea]	< 5 µM
COc1ccc(-c2ccc(CN(CCCNc3nsc4ccccc34)S(=O)(=O)c3cn(C)c(C)n3)cc2)cc1 [Compound 316, N-(3-(benzo[d]isothiazol-3-ylamino)propyl)-N-((4′-methoxybiphenyl-4-yl)methyl)-1,2-dimethyl-1H-imidazole-4-sulfonamide]	< 5 µM
